Data on seven substances can be found in patent US20030224021A1, “Methods of using epitope peptides of human pathogens” (Regents of the University of Minnesota, priority 1998, published 2003).

One test relates to anti-DTD CD4+ cell lines. Description: Proliferation assay (3H-thymidine) with anti-DTD CD4+ cell lines challenged with individual synthetic DTX peptides. To be noted: seven subjects of different HLA class II haplotype; peptide 10 μg/ml. In kind it is cell-based, human. On the procedure:
Propagation of CD4+ cell lines specific for DTD and proliferation assay. PBMC were suspended (1-2×10^6 cell/ml) in TCM containing 10 μg/ml DTD, and cultivated in T25 flasks (Costar, Cambridge, Mass.) for 1 week. The reactive lymphoblasts were isolated on Percoll gradients, expanded in TCM containing T-cell growth factor (TCGF, Lymphocult, Biotest Diagnostic, Dreieich, Germany, at a final concentration of IL-2 of 10 units/ml), and enriched in DTD-specific cells by weekly stimulations with the same amount of DTD plus irradiated (4,000 rads: 1 rad=0.01 Gy) autologous PBMC as APC. The response to DTD and PHA of the T cell lines obtained was tested weekly.
Proliferation assays with CD4+ cell lines for DTD. Proliferation assays were carried out with CD4+ lines, using 2×10^4 cells/well, irradiated autologous PBMC (2×10^5 cells/well) as APC, and the Ags described above for CD4+ enriched PBMC. Basal growth rate (Blank) was determined from triplicate wells containing CD4+ cell lines cultivated without any stimulus. After one day, the cultured cells were pulsed for 16 hours with ^3H-thymidine, collected, and the ^3H-thymidine incorporation measured as described above for CD4+ enriched PBMC.
Sequence segments of DTX recognized by anti-DTD T cell lines. The DTX epitopes recognized by the CD4+ cell lines were identified in proliferation assays using individual synthetic DTX-specific peptides. […] The consistency of the recognition was verified by repeating the test 1-2 weeks later.

The next test concerns PBMC. Put plainly: PBMC of 49 HLA heterogenous subjects challenged with DTX and TTX universal epitope peptides. In kind it is cell-based, human. To be noted: share of the 49 subjects whose PBMC responded. An excerpt: PBMC of 49 randomly selected, HLA heterogenous human subjects were challenged with each of the identified DTX and TTX universal epitope peptides. Generally, the PBMCs of each subject recognized several universal epitopes and all but one recognized at least one of the peptides.

Where no end group is shown, it is not given here.

As for QGESGHDIKITAENTPLPIA [411-430], the “recognition by anti-DTD CD4+ cell lines” value in the test with anti-DTD CD4+ cell lines is “recognized by all seven individuals”. Moreover, in the test with PBMC, the “positive response (1%)” value is 70%.

For the substance GVLLPTIPGKLDVNKSKTHI [431-450], in the test with anti-DTD CD4+ cell lines, the “recognition by anti-DTD CD4+ cell lines” value is listed as “recognized by all seven individuals”. The “positive response (1%)” value with PBMC was found to be 70%. For PVFAGANYAAWAVNVAQVI [271-290] the same measures were “recognized by all seven individuals” and 84%. For “Gln-Ser-Ile-Ala-Leu-Ser-Ser-Leu-Met-Val-Ala-Gln-Ala-Ile-Pro-leu-Val-Gly-Glu-Leu [331-350]” the same measures were “recognized by all seven individuals” and 80%.

In the case of VDIGFAAYNFVESIINLFQVV [351-370], the “recognition by anti-DTD CD4+ cell lines” value in the test on anti-DTD CD4+ cell lines is “recognized by all seven individuals”. In addition, the “positive response (1%)” value in the test with PBMC was 71%. Consider “TDD: column head of Table 4 beside the TTD sequence segments; presumably tetanus toxoid”, for which, in the test with PBMC, the “positive response (1%)” value turned out to be 96%. In the case of VHHNTEEIVAQSIALSSLMV [321-340], the “recognition by anti-DTD CD4+ cell lines” value in the test with anti-DTD CD4+ cell lines is reported as “recognized by all seven individuals”. Also, in the test with PBMC, the “positive response (1%)” value came out at 76%.
